ChEMBL document CHEMBL4346703, “Structure Overhaul Affords a Potent Purine PI3Kδ Inhibitor with Improved Tolerability” (J Med Chem, 2019)

Key:
[1] = Plasma clearance in Beagle dog at 0.25 mg/kg, iv or 0.5 mg/kg, po; assay type: ADME, organism-based, Canis lupus familiaris
[2] = target: PI3-kinase p110-alpha/p85-alpha (Homo sapiens, UniProt P42336); test: Inhibition of N-terminal His6-tagged recombinant full length human p110alpha/untagged recombinant full length human p85alpha expressed in baculovirus infected Sf21 insect cells using PIP2 as substrate preincubated for 15 mins followed by substrate addition and measured after 1 hr by HTRF assay
Sequence of PI3-kinase p110-alpha/p85-alpha (P27986 whole entry): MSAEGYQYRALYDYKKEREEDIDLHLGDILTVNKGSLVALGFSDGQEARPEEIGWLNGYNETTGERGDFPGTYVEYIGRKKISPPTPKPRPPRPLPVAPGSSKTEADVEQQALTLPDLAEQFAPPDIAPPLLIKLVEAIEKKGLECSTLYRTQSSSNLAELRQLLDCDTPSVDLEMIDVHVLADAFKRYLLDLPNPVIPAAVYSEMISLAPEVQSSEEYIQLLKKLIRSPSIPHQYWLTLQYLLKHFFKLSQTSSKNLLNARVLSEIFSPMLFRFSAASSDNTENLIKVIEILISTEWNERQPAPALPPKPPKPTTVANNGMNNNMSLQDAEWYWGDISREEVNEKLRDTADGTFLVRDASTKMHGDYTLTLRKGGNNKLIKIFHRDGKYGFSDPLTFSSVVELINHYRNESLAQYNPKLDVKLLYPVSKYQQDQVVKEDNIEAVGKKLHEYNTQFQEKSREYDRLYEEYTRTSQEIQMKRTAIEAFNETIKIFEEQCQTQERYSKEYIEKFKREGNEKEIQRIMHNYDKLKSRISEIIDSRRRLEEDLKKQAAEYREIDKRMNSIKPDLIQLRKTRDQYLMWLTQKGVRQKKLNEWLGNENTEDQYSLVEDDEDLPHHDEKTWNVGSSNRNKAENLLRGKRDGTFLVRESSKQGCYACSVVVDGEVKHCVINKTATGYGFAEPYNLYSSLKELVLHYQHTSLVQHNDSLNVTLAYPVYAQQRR
Sequence of PI3-kinase p110-alpha/p85-alpha (P42336 whole entry): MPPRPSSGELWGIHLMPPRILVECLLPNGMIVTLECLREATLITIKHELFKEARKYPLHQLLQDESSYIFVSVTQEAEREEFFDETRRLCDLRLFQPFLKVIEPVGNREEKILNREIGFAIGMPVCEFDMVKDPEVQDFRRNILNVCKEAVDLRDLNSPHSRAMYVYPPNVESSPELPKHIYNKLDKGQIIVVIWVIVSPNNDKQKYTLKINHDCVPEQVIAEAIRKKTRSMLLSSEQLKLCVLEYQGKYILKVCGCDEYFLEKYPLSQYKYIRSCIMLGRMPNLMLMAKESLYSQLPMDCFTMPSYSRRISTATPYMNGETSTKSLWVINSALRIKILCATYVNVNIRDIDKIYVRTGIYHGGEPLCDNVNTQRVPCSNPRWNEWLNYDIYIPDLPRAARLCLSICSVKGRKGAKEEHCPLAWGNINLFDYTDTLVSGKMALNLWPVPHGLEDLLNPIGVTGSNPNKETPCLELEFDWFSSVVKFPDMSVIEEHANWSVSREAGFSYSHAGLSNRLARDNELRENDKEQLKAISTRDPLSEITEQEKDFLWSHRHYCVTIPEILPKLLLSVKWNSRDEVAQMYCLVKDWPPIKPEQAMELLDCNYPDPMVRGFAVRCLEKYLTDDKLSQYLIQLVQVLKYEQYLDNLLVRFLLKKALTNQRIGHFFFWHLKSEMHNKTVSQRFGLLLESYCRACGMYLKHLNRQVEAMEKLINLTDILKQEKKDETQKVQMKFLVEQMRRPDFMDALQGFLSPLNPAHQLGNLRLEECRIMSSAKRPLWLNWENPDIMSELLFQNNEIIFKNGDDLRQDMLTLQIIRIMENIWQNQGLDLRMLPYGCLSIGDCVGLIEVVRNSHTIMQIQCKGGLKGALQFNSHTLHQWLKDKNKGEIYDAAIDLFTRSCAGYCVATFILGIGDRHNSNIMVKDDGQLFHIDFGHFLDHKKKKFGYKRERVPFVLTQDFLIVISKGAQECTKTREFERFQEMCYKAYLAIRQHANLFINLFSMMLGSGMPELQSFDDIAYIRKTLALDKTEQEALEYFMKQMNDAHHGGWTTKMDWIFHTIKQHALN

[3] = target: PI3-kinase p110-delta/p85-alpha (Homo sapiens, UniProt O00329); test: Inhibition of N-terminal His6-tagged recombinant full length human p110delta/untagged recombinant full length human p85alpha expressed in baculovirus infected Sf21 insect cells using PIP2 as substrate preincubated for 15 mins followed by substrate addition and measured after 1 hr by HTRF assay
Sequence of PI3-kinase p110-delta/p85-alpha (P27986 whole entry, one chain of several, canonical isoform): as the sequence (P27986 whole entry) above

[4] = target: T1, Phosphatidylinositol 4,5-bisphosphate 3-kinase catalytic subunit delta isoform (Homo sapiens, UniProt O00329); test: Inhibition of PI3Kdelta in human Ramos cells assessed as reduction in anti-IgM-antibody-induced phosphorylation of AKT at Ser473 residue preincubated for 20 mins followed by anti-IgM antibody stimulation and measured after 30 mins by alphascreen assay; assay type: cell-based
T1 sequence (O00329 whole entry): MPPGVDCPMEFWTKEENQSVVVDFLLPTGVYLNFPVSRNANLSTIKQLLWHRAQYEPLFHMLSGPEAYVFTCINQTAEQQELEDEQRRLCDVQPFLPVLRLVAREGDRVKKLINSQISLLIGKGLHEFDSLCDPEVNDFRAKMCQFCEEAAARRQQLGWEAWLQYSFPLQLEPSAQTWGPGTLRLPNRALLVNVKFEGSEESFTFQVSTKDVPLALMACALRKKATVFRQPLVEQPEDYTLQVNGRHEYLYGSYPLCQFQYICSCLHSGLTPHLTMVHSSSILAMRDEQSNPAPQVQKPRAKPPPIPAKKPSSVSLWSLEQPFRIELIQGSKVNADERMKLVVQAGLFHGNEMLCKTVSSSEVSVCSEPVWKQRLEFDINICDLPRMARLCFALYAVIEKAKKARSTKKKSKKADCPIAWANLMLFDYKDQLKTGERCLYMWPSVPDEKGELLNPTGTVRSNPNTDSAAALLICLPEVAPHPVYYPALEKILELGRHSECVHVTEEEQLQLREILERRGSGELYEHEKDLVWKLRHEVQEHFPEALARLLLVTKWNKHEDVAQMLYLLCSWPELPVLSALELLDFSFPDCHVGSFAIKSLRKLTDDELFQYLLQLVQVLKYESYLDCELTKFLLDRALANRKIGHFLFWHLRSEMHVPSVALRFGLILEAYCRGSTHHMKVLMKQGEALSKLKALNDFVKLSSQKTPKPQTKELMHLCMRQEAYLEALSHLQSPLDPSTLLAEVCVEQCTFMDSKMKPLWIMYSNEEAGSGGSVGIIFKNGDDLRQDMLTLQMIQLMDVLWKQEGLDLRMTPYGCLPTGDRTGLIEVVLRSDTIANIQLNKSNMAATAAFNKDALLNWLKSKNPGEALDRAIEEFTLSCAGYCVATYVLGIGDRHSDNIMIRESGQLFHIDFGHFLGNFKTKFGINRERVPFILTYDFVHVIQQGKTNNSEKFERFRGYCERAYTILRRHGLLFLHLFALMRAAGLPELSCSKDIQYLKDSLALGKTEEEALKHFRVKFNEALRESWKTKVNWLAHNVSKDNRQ

[5] = Inhibition of adenosine transporter in human HeLa cells assessed as reduction in [3H]adenosine uptake preincubated for 30 mins followed by [3H]adenosine addition and measured after 60 mins; assay type: ADME, cell-based
[6] = target: T1, Phosphatidylinositol 4,5-bisphosphate 3-kinase catalytic subunit delta isoform; test: Inhibition of PI3Kdelta in human whole blood assessed as reduction in anti-CD79b antibody-induced CD69 expression preincubated for 60 mins followed by anti-CD79b antibody stimulation and measured after 3 hrs by FACS analysis; assay type: tissue-based
[7] = target: T1, Phosphatidylinositol 4,5-bisphosphate 3-kinase catalytic subunit delta isoform; test: Inhibition of PI3Kdelta in human whole blood assessed as reduction in antihuman IgE antibody-stimulated CD63 expression preincubated for 30 mins followed by antihuman IgE antibody stimulation and measured after 20 mins by FACS analysis; assay type: tissue-based
Phosphodiesterase 1 = Phosphodiesterase 1 (Homo sapiens, UniProt P54750+Q01064+Q14123); test: Inhibition of PDE1 (unknown origin); assay type: protein assay
[8] = target: cGMP-dependent 3',5'-cyclic phosphodiesterase (Homo sapiens, UniProt O00408); test: Inhibition of PDE2 (unknown origin)
Sequence of cGMP-dependent 3',5'-cyclic phosphodiesterase (O00408 whole entry): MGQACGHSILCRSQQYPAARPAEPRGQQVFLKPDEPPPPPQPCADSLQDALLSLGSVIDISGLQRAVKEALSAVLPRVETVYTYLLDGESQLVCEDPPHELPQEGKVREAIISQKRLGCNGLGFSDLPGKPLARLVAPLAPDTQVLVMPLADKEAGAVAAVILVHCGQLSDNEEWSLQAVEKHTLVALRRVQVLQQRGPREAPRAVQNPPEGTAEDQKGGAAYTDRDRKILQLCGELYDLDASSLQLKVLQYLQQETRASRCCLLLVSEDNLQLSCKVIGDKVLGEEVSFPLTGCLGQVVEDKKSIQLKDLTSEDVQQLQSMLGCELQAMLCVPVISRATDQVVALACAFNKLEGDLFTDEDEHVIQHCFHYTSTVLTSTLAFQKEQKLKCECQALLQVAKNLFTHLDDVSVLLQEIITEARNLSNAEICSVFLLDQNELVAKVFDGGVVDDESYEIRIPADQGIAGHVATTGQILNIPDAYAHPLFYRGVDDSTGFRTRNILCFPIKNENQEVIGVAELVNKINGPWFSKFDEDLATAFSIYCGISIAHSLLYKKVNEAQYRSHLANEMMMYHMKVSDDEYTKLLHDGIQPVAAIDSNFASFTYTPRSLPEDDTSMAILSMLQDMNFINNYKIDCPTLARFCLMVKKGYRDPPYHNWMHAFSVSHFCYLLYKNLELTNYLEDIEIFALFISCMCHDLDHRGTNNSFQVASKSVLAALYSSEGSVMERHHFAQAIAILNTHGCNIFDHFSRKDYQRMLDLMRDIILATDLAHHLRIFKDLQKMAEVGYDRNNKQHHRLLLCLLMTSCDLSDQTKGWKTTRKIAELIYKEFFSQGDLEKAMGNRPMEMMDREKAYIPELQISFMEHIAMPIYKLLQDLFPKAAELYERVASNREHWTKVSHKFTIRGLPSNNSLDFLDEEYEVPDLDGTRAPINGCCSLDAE

Phosphodiesterase 3 = Phosphodiesterase 3 (Homo sapiens, UniProt Q14432+Q13370); test: Inhibition of PDE3 (unknown origin); assay type: protein assay
Phosphodiesterase 4 = Phosphodiesterase 4 (Homo sapiens, UniProt P27815+Q08499+Q07343+Q08493); test: Inhibition of PDE4 (unknown origin); assay type: protein assay
[9] = target: cAMP and cAMP-inhibited cGMP 3',5'-cyclic phosphodiesterase 10A (Homo sapiens, UniProt Q9Y233); test: Inhibition of PDE10 (unknown origin)
Sequence of cAMP and cAMP-inhibited cGMP 3',5'-cyclic phosphodiesterase 10A (Q9Y233 whole entry): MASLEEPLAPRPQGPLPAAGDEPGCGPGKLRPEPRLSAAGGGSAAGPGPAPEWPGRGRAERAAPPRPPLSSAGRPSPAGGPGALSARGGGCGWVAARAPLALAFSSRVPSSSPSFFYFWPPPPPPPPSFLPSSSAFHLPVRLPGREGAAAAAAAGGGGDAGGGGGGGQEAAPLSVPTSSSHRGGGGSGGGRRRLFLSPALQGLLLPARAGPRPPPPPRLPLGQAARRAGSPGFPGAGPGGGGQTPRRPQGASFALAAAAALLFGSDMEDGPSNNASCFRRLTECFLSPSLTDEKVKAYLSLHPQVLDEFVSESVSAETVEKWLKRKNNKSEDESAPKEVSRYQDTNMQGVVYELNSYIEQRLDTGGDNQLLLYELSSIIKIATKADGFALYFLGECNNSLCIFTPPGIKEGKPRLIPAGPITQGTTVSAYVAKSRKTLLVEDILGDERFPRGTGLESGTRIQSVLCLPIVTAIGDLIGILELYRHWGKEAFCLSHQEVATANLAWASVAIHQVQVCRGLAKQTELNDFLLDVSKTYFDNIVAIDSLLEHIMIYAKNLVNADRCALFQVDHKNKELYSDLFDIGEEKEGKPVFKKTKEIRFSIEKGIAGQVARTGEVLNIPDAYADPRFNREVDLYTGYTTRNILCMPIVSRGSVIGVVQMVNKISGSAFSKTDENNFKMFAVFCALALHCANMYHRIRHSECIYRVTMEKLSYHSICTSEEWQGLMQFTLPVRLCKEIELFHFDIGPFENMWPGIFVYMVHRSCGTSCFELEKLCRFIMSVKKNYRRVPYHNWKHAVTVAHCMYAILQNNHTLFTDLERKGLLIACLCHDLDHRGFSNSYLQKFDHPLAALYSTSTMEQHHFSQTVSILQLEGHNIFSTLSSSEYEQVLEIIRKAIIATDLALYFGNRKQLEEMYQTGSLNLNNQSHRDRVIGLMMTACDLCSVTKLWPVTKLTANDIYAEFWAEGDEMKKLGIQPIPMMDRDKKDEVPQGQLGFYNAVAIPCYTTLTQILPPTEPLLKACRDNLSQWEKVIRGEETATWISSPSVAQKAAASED

[10] = Plasma clearance in Wistar Han rat at 0.5 mg/kg, iv or 1 mg/kg, po; assay type: ADME, organism-based
[11] = Intrinsic clearance in Wistar Han rat at 0.5 mg/kg, iv or 1 mg/kg, po; assay type: ADME, organism-based; settings: in vivo
[12] = Volume of distribution in Wistar Han rat; assay type: ADME; settings: in vivo
[13] = Unbound volume of distribution in Wistar Han rat; assay type: ADME; settings: in vivo
[14] = Half-life in Wistar Han rat; assay type: ADME; settings: in vivo
[15] = Oral bioavailability in Wistar Han rat; assay type: ADME, organism-based; settings: in vivo
[16] = Protein binding in Wistar Han rat plasma; assay type: ADME, cell-free; settings: read-out: PPB (converted)
[17] = Volume of distribution in Beagle dog; assay type: ADME, Canis lupus familiaris; settings: in vivo
[18] = Unbound volume of distribution in Beagle dog; assay type: ADME, Canis lupus familiaris; settings: in vivo
[19] = Half-life in Beagle dog; assay type: ADME, Canis lupus familiaris; settings: in vivo
[20] = Oral bioavailability in Beagle dog; assay type: ADME, organism-based, Canis lupus familiaris; settings: in vivo
[21] = Protein binding in Beagle dog plasma; assay type: ADME, cell-free, Canis lupus familiaris; settings: read-out: PPB (converted)
[22] = Protein binding in human plasma; assay type: ADME, cell-free; settings: read-out: PPB (converted)
[23] = Toxicity in rat assessed as increase in blood pressure at 750 mg/kg/day; assay type: organism-based; settings: in vivo
[24] = Toxicity in rat assessed as increase in heart rate at 750 mg/kg/day; assay type: organism-based; settings: in vivo
[25] = fAUC in rat at 750 mg/kg/day; assay type: ADME, organism-based; settings: in vivo
[26] = fCmax in rat at 750 mg/kg/day; assay type: ADME, organism-based; settings: in vivo
[27] = fAUC in Beagle dog at 30 mg/kg; assay type: ADME, organism-based, Canis lupus familiaris; settings: in vivo
[28] = fCmax in Beagle dog at 30 mg/kg; assay type: ADME, organism-based, Canis lupus familiaris; settings: in vivo
[29] = Lipophilicity, log D of the compound; assay type: physicochemical; settings: octanol/water
[30] = Stability in rat microsomes in the presence of NADPH; assay type: ADME, Microsome
[31] = Stability in human microsomes in the presence of NADPH; assay type: ADME, Microsome
[32] = Drug metabolism in dog microsomes assessed as oxidation of imidazopyridinone metabolite; assay type: ADME, Canis lupus familiaris, Microsome
[33] = target: T2, Nuclear receptor subfamily 1 group I member 2 (Homo sapiens, UniProt O75469); test: Activation of PXR (unknown origin); assay type: ADME
T2 sequence (O75469 whole entry): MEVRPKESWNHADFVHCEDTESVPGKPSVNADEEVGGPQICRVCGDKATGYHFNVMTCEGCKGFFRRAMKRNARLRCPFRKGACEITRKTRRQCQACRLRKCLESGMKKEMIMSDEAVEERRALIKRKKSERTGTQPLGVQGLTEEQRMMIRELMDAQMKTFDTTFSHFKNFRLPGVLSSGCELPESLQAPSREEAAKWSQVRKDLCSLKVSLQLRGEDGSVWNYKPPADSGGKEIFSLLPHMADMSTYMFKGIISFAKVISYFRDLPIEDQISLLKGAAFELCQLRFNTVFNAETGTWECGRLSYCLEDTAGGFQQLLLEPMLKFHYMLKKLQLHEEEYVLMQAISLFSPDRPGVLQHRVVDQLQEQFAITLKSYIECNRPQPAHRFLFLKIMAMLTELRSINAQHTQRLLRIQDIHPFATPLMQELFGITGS

[34] = Drug metabolism in dog microsomes assessed as N-dealkylation of pyrazole metabolite; assay type: ADME, Canis lupus familiaris, Microsome
[35] = Toxicity in Beagle dogs assessed as medial necrosis of the arteries by measuring disruption of tunica media by hemorrhage at 30 mg/kg; assay type: organism-based, Canis lupus familiaris; settings: dog, in vivo
[36] = Toxicity in Beagle dogs assessed as medial necrosis of the arteries by measuring disruption of tunica media by fibrin at 30 mg/kg; assay type: organism-based, Canis lupus familiaris; settings: dog, in vivo
[37] = Toxicity in Beagle dogs assessed as medial necrosis of the arteries by measuring disruption of tunica media by cellular debris at 30 mg/kg; assay type: organism-based, Canis lupus familiaris; settings: dog, in vivo

clearance [1]: 46 mL/min/kg
IC50 [2]: 450 nM
IC50 [3]: 6.3 nM
IC50 [4]: 63 nM
IC50 [5]: 72 nM
IC50 [6]: 810 nM
IC50 [7]: 790 nM
IC50 (Phosphodiesterase 1): 2350 nM
IC50 [8]: 4900 nM
IC50 (Phosphodiesterase 3): 1030 nM
IC50 (Phosphodiesterase 4): 1190 nM
IC50 [9]: 4010 nM
clearance [10]: 5.8 mL/min/kg
CL [11]: 60 mL/min/kg
Vd [12]: 0.4 L/kg
Vdu [13]: 4 L/kg
half-life [14]: 1.2 h
bioavailability [15]: 76%
fraction unbound [16]: 0.1
Vd [17]: 4.6 L/kg
Vdu [18]: 90 L/kg
half-life [19]: 1.1 h
bioavailability [20]: 61%
fraction unbound [21]: 0.05
fraction unbound [22]: 0.21
fAUC [25]: 123 µM·h
fCmax [26]: 8 µM
fAUC [27]: 4.4 µM·h
fCmax [28]: 0.33 µM
logD [29]: 1.4
Stability [30]: Stable
Stability [31]: Stable
Drug metabolism [32]: Metabolite_Detected
Activity [33]: Not Active
Drug metabolism [34]: Metabolite_Detected
SMILES: CCn1ncc(-c2nc3c(N4CCC(n5c(=O)[nH]c6ncccc65)CC4)ncnc3n2C)c1C
Activity [23]: 20 mmHg
Activity [24]: 100 bpm
Activity [35]: Non-Toxic
Activity [36]: Non-Toxic
Activity [37]: Non-Toxic
